Patent US5208152A, “Catalysts of Diels-Alder reactions, methods and catalysts therefor” (The Scripps Research Institute, priority 1992, dated 1993)

Test system: monoclonal catalytic antibody 1E9 (reductively methylated), secreted by hybridoma 1E9, ATCC HB 10261
Test: Antibody-catalyzed Diels-Alder [4+2] cycloaddition/fragmentation reaction between TCTD and N-ethylmaleimide
Assay type: biochemical, mouse
From the text: Because TCTD reacts with lysine residues on the surface of the immunoglobulins, it was necessary to reduce the nucleophilicity of the amino groups by exhaustive reductive methylation [Jentoft et al., J. Biol. Chem., 254:4359 (1979)]. […] Chemical modification of immunoglobulins in this way is likely to be of general value, as it will permit reactive molecules like epoxides, Michael acceptors or other alkylating agents to be employed as substrates for catalytic antibodies.
The methylated antibodies were assayed at 25 degrees C. for their ability to promote the Diels-Alder [4+2] cycloaddition/fragmentation reaction between TCTD and N-ethylmaleimide (NEM) in aqueous buffer (20 mM MES, 100 mM NaCl, pH 6.0) containing 10 percent acetonitrile. Cycloadditions were followed by monitoring the disappearance of TCTD at 330 nm or by analytical reverse-phase HPLC. HPLC kinetic assays were performed on a Vydac C-18 218-TP-510 reverse phase column (10 mm×25 cm, 2 mL/min, gradient elution from 100 percent H2 O to 60:40 CH3 CN:H2 O in 20 minutes, then 5 minutes at the latter solvent composition) using acetophenone as an internal standard.

Row | SMILES | apparent kcat (NEM concentration varied, 0.61 mM TCTD held constant, 25 degrees C, 20 mM MES, 100 mM NaCl, pH 6.0, 10 percent acetonitrile) | Km (NEM concentration varied, 0.61 mM TCTD held constant, 25 degrees C, 20 mM MES, 100 mM NaCl, pH 6.0, 10 percent acetonitrile, read-out: apparent (Km)NEM) | inhibition of the catalyzed reaction (preincubation of the antibody with an equimolar amount of the inhibitor)
1 | CCN1C(=O)C=CC1=O [NEM, N-ethylmaleimide] | 0.0717 ± 0.005 s⁻¹ | 21 ± 4 mM | –
2 | CCN1C(=O)C2C(C1=O)C1(Cl)C(Cl)=C(Cl)C2(Cl)C1(Cl)Cl (stereo not drawn) [Compound 3] | – | – | stopped the oatalyzed reaction completely
